Two compounds from patent US4740233A, “Substituted 1,2,4-triazolo[1,5-a]-pyrimidine-2-sulfonamides and compositions and methods of controlling undesired vegetation and suppressing the nitrification of ammonium nitrogen in soil” (The Dow Chemical Company, priority 1986, dated 1988) can be followed below.

Molecules are shown by their SMILES.

Test [1] has as its system jimsonweed. Put plainly: Postemergent control of plant species. Type of test: in vivo, Datura stramonium. The note with it: Datura stramonium, post-emergence, 336 h, read-out: percent postemergent control. In outline:
(§1)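 Each compound is dissolved in acetone, mixed with an equal volume of 0.1% surfactant water, and sprayed on plants grown to 2-4 leaves in nutrient soil. Treated and untreated beds sit under identical greenhouse temperature and light for roughly two weeks before growth reduction is rated.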

The subject of test [2] is velvetleaf. Put plainly: Postemergent control of plant species. Type of test: in vivo, Abutilon theophrasti. Conditions: Abutilon theophrasti, post-emergence, 336 h, read-out: percent postemergent control. The method in brief:
as §1

The subject of test [3] is nitrification of ammonium nitrogen. Description: Suppression of nitrification of ammonium nitrogen in soil. The note with it: 27° C. In outline: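 Soil (20 g) moistened to its 1/3 bar tension value, mixed with test chemical and incubated sealed for two weeks at 27° C. Nitrate extracted with ammonium sulfate solution and measured by nitrate-specific ion electrode; value given as % NH4-N remaining.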

Another test has as its system pigweed. Put plainly: Postemergent control of plant species. Type of test: in vivo, Amaranthus spp. Conditions: Amaranthus retroflexus, post-emergence, 336 h, read-out: percent postemergent control. In outline: as §1
The test system of test [4] is corn. Description: Postemergent control of plant species. It counts as in vivo, Zea mays. The note with it: Zea mays, post-emergence, 336 h, read-out: percent postemergent control. In outline:
as §1

Test [5] relates to soybean. Put plainly: Postemergent control of plant species. It counts as in vivo, Glycine max. Conditions: Glycine max, post-emergence, 336 h, read-out: percent postemergent control. The method in brief:
as §1

Test [6] deals with yellow foxtail. Put plainly: Postemergent control of plant species. It counts as in vivo, Setaria lutescens. The note with it: Setaria, post-emergence, 336 h, read-out: percent postemergent control. In outline:
as §1

For test [7], the system named is wheat. Description: Postemergent control of plant species. Type of test: in vivo, Triticum aestivum. Conditions: Triticum aestivum, post-emergence, 336 h, read-out: percent postemergent control. The method in brief: as §1
In test [8] the test system is yellow nutsedge. Description: Postemergent control of plant species. The note with it: Cyperus, post-emergence, 336 h, read-out: percent postemergent control. Type of test: in vivo, Cyperus esculentus. The method in brief: as §1
Test [9] concerns sugar beet. Put plainly: Postemergent control of plant species. It counts as in vivo, Beta saccharifera. Conditions: Beta vulgaris, post-emergence, 336 h, read-out: percent postemergent control. The method in brief:
as §1

For test [10], the system named is cotton. Description: Postemergent control of plant species. Conditions: Gossypium hirsutum, post-emergence, 336 h, read-out: percent postemergent control. It counts as in vivo, Gossypium spp. The method in brief: as §1
The test system of test [11] is rape. Description: Postemergent control of plant species. Conditions: Brassica napus, post-emergence, 336 h, read-out: percent postemergent control. It counts as in vivo, Brassica napus. In outline:
as §1

In test [12] the test system is annual sugar beet variety (SLC03). Description: Plant growth regulator activity, postemergence. It counts as in vivo. An excerpt:
Using a regular biennial variety, even a bolting-susceptible variety would require a cold treatment of around 10-16 weeks plus a hormone treatement in conjunction with specific light intensities. Thus, for a screening organism, we selected one which would consistently produce bolting on a regular schedule. The screen is run with an annual sugar beet variety (SLC03) provided by Dr. Richard J. Hecker, Fort Collins, Colo. This variety is an inbred which bolts in the 6- to 8-leaf stage without any need for vernalization. This allows the screen to be run entirely in the greenhouse with all 110 chemical compounds tested on one tray. The sugarbeets are grown in 3×3 inch square pots in a greenhouse sandy loam potting mix. The sugarbeets are sprayed with test compounds when they are 2 to 3 weeks old (2 true leaves). The compounds are dissolved in acetone and diluted with water containing Tween 20 as a wetting agent. The concentration of acetone in the final spray is 20% and the concentration of Tween 20 is 0.05 percent. The plants are examined for the appearance of a bolt 4 weeks after spraying.

In test [13] the test system is annual morning glory. Put plainly: Postemergent control of plant species. Type of test: in vivo, Ipomoea spp. Conditions: Ipomoea, post-emergence, 336 h, read-out: percent postemergent control. In outline: as §1
The test system of a further test is wild oats. Description: Postemergent control of plant species. Type of test: in vivo, Avena fatua. Conditions: Avena fatua, post-emergence, 336 h, read-out: percent postemergent control. The method in brief: as §1
For test [14], the system named is johnson grass. Description: Postemergent control of plant species. Conditions: Sorghum halepense, post-emergence, 336 h, read-out: percent postemergent control. Type of test: in vivo, Sorghum halepense. In outline: as §1
Test [15] concerns sorghum. Put plainly: Postemergent control of plant species. Type of test: in vivo, Sorghum vulgare. Conditions: Sorghum, post-emergence, 336 h, read-out: percent postemergent control. The method in brief:
as §1

Test [16] deals with rice. Put plainly: Postemergent control of plant species. Conditions: Oryza sativa, post-emergence, 336 h, read-out: percent postemergent control. It counts as in vivo, Oryza sativa. In outline: as §1
In another test the test system is cocklebur. Put plainly: Postemergent control of plant species. Type of test: in vivo, Xanthium spp. The note with it: Xanthium strumarium, post-emergence, 336 h, read-out: percent postemergent control. In outline: as §1
The subject of the next test is crabgrass. Description: Postemergent control of plant species. It counts as in vivo, Digitaria spp. Conditions: Digitaria sanguinalis, post-emergence, 336 h, read-out: percent postemergent control. In outline: as §1
In test [17] the test system is barnyardgrass. Description: Postemergent control of plant species. It counts as in vivo, Echinochloa crusgalli. The note with it: Echinochloa crus-galli, post-emergence, 336 h, read-out: percent postemergent control. In outline:
as §1

Test [18] deals with rice. Description: Preemergent control of plant species. It counts as in vivo, Oryza sativa. The note with it: Oryza sativa, pre-emergence, 336 h; 0.25 lb/acre; read-out: percent preemergent control. The method in brief:
(§2)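 Preemergent application of aqueous emulsions at rates given in the table, uniformly over seeded greenhouse soil. Untreated (water) beds as comparison; rating after 2 weeks as reduction in growth.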

The subject of test [19] is cotton. Description: Preemergent control of plant species. Type of test: in vivo, Gossypium spp. Conditions: Gossypium hirsutum, pre-emergence, 336 h; 0.25 lb/acre; read-out: percent preemergent control. The method in brief: as §2
Test [20] deals with yellow foxtail. Description: Preemergent control of plant species. Type of test: in vivo, Setaria lutescens. The note with it: Setaria, pre-emergence, 336 h; 0.25 lb/acre; read-out: percent preemergent control. In outline:
as §2

The subject of test [21] is johnson grass. Description: Preemergent control of plant species. Type of test: in vivo, Sorghum halepense. The note with it: Sorghum halepense, pre-emergence, 336 h; 0.25 lb/acre; read-out: percent preemergent control. The method in brief:
as §2

Test [22] relates to corn. Description: Preemergent control of plant species. Type of test: in vivo, Zea mays. The note with it: Zea mays, pre-emergence, 336 h; 0.25 lb/acre; read-out: percent preemergent control. The method in brief:
as §2

Test [23] has as its system sugar beet. Description: Preemergent control of plant species. It counts as in vivo, Beta saccharifera. The note with it: Beta vulgaris, pre-emergence, 336 h; 0.25 lb/acre; read-out: percent preemergent control. In outline: as §2
A further test concerns corn (First In). Put plainly: Gametocidal activity in corn, postemergent application. Type of test: in vivo. The note with it: sprayed at three leaf stage. Here is the method: The compounds of this invention are also plant gametocides depending on the dosage and timing of application and the species of plant to which the compounds are applied. For example, certain of the compounds were sprayed on corn seedlings at the three leaf stage of growth, and the seedlings were returned to the greenhouse for subsequent growth and observation. The corn variety was "First In". The chemicals were dissolved in acetone, and the acetone solution was diluted with water containing Tween 20 wetting agent such that the final spray solution contained 50% acetone and 0.1% Tween 20 in water. […] Tabulated below are data which illustrate the use of the compounds of this invention as plant gametocides in corn.

Test [24] concerns yellow nutsedge. Description: Preemergent control of plant species. It counts as in vivo, Cyperus esculentus. Conditions: Cyperus, pre-emergence, 336 h; 0.25 lb/acre; read-out: percent preemergent control. The method in brief: as §2
For test [25], the system named is barnyardgrass. Description: Preemergent control of plant species. It counts as in vivo, Echinochloa crusgalli. The note with it: Echinochloa crus-galli, pre-emergence, 336 h; 0.25 lb/acre; read-out: percent preemergent control. In outline: as §2
The subject of test [26] is sorghum. Description: Preemergent control of plant species. Type of test: in vivo, Sorghum vulgare. The note with it: Sorghum, pre-emergence, 336 h; 0.25 lb/acre; read-out: percent preemergent control. The method in brief:
as §2

Test [27] relates to wheat. Put plainly: Preemergent control of plant species. It counts as in vivo, Triticum aestivum. Conditions: Triticum aestivum, pre-emergence, 336 h; 0.25 lb/acre; read-out: percent preemergent control. In outline:
as §2

Test [28] has as its system rape. Put plainly: Preemergent control of plant species. It counts as in vivo, Brassica napus. Conditions: Brassica napus, pre-emergence, 336 h; 0.25 lb/acre; read-out: percent preemergent control. The method in brief: as §2
Test [29] has as its system annual morning glory. Description: Preemergent control of plant species. Type of test: in vivo, Ipomoea spp. The note with it: Ipomoea, pre-emergence, 336 h; 0.25 lb/acre; read-out: percent preemergent control. The method in brief:
as §2

The subject of test [30] is jimsonweed. Description: Preemergent control of plant species. Conditions: Datura stramonium, pre-emergence, 336 h; 0.25 lb/acre; read-out: percent preemergent control. Type of test: in vivo, Datura stramonium. In outline:
as §2

In test [31] the test system is soybean. Put plainly: Preemergent control of plant species. Type of test: in vivo, Glycine max. Conditions: Glycine max, pre-emergence, 336 h; 0.25 lb/acre; read-out: percent preemergent control. In outline: as §2
The subject of test [32] is velvetleaf. Description: Preemergent control of plant species. Type of test: in vivo, Abutilon theophrasti. The note with it: Abutilon theophrasti, pre-emergence, 336 h; 0.25 lb/acre; read-out: percent preemergent control. In outline:
as §2

As for `Cc1cccc(Cl)c1NS(=O)(=O)c1nc2ncc(Cl)cn2n1` [Compound 119], the pest or weed control at 500 ppm in the test on jimsonweed [1] came out at 90%; with velvetleaf [2] it was 70%; in the test with pigweed it was 0%; in the test with yellow foxtail [6], 0%; with yellow nutsedge [8] it was 40%; in the test with annual morning glory [13], 30%. Also, the pest or weed control at 500 ppm worked out at 0% with wild oats; 80% with johnson grass [14]; 70% with cocklebur; 0% with crabgrass; 0% in the test on barnyardgrass [17]. The “% NH4-N Remaining After 2 Weeks Incubation” value in test [3] (0.06 ppm) is listed as 23%; in test [3] (0.25 ppm), 33%; in test [3] (1 ppm), 69%; in test [3] (4 ppm) it was 88%. Further, the plant injury at 500 ppm came to 30% with corn [4]; 0% in the test with soybean [5]; 0% with wheat [7]; 50% with sugar beet [9]; 0% in the test with cotton [10]; 100% with rape [11]. Moreover, the plant injury at 500 ppm in the test on sorghum [15] and in the test on rice [16] was 0% each time. Also, the “observed effect (postemergence)” value in test [12] (400 ppm) is on record as “stunting”. Moreover, the minimal effective concentration in test [12] (Beta vulgaris, post-emergence, 672 h, 4 weeks after spraying, read-out: Bolting Inhibition (postemergence), concentration with observed effect) was found to be 400 µg/mL.

Consider `CCCCC(=O)N(c1c(F)cccc1F)S(=O)(=O)c1nc2nc(C)ccn2n1` [Compound 279], for which the plant injury at 280.212 g/ha with rice [18] stood at 100%; with cotton [19], 90%; in the test with corn [22], 80%; in the test on sugar beet [23] it was 100%; in the test with sorghum [26], 100%; with wheat [27], 90%. Besides, the plant injury at 280.212 g/ha came out at 100% with rape [28] and 20% in the test on soybean [31]. In addition, the pest or weed control at 280.212 g/ha in the test on yellow foxtail [20] is 100%; in the test with johnson grass [21], 100%; with yellow nutsedge [24] it was 100%; in the test on barnyardgrass [25], 100%; in the test with annual morning glory [29] it was 90%; with jimsonweed [30], 100%. Also, the pest or weed control at 280.212 g/ha with velvetleaf [32] is 100%. Moreover, the “concentration required to produce 100% control (gametocidal activity)” value with corn (First In) came to 50 ppm.
